Assay results as given in patent US20040121946A9, “Inducing cellular immune responses to her2/neu using peptide and nucleic acid compositions” (priority 2002, published 2004).
pIC50: −log10 of the molar value. Read-outs that look alike come from different tables or passages of the source. Where a SMILES comes first, the peptide text is derived from it. Where no end group is shown, it is not given here.

Assays:
DRB1*0301 (DR3) = DRB1*0301 (DR3) (Homo sapiens, UniProt P01903+P01911, A100K/A102G/A103R/A169T/F55Y/I96L/K41T/L162R/M171V/P40S/Q125H/Q178H/Q39Y/R42S/S66N/T106N/T262R/W38E/Y61H); assay: HLA class II peptide binding assay, purified HLA; conditions: unit not given
HLA-B*0702 = HLA-B*0702 (Homo sapiens, UniProt P01889); format: binding
[1] = tested on: B7-supertype molecules (B*0702, B*3501, B*5101, B*5301, B*5401); assay: B7-supertype cross-reactive binding; design: species or system human; conditions: of five B7-supertype alleles tested
[2] = Table XIX, DR supermotif peptides
[3] = Table XXa, DR 3a motif peptides
[4] = Table XXIV, B7 supermotif peptides

Compound	DR3 binding data (DRB1*0301 (DR3); [3])	pIC50 (HLA-B*0702; [4])	also measured
CSCC[C@H](NC(=O)CNC(=O)[C@H](CC(C)C)NC(=O)CNC(=O)[C@H](Cc1ccc(O)cc1)NC(=O)[C@@H](N)CS)C(=O)N[C@@H](CCC(=O)O)C(=O)N[C@@H](Cc1c[nH]cn1)C(=O)N[C@@H](CC(C)C)C(=O)N[C@@H](CCCNC(=N)N)C(=O)N[C@@H](CCC(=O)O)C(=O)N[C@H](C(=O)N[C@@H](CCCNC(=N)N)C(=O)N[C@@H](C)C(=O)N[C@H](C(=O)O)C(C)C)C(C)C	0.0083	–	DR3 binding data (DRB1*0301 (DR3); [2]): 0.0083
CC[C@H](C)[C@H](NC(=O)[C@@H](NC(=O)[C@@H](NC(=O)[C@H](Cc1ccccc1)NC(=O)[C@H](CCCNC(=N)N)NC(=O)[C@H](CCC(N)=O)NC(=O)[C@@H]1CCCN1C(=O)[C@H](CC(=O)O)NC(=O)[C@H](CCCNC(=N)N)NC(=O)[C@H](C)NC(=O)[C@H](CCSC)NC(=O)[C@H](CCCNC(=N)N)NC(=O)[C@H](CO)NC(=O)[C@@H](N)Cc1ccccc1)C(C)C)C(C)C)C(=O)N[C@@H](CCC(N)=O)C(=O)O	0.1600	–	–
CC(C)C[C@H](NC(=O)[C@H](C)NC(=O)[C@H](Cc1ccc(O)cc1)NC(=O)[C@H](CC(N)=O)NC(=O)[C@H](CC(=O)O)NC(=O)[C@H](CCC(=O)O)NC(=O)[C@H](Cc1ccccc1)NC(=O)[C@H](CC(C)C)NC(=O)[C@H](CCC(N)=O)NC(=O)[C@@H](NC(=O)CN)[C@@H](C)O)C(=O)N[C@@H](C)C(=O)N[C@H](C(=O)N[C@@H](CC(C)C)C(=O)N[C@@H](CC(=O)O)C(=O)O)C(C)C	0.2200	–	–
CC(C)C[C@H](NC(=O)[C@@H]1CCCN1C(=O)[C@@H](NC(=O)[C@@H](NC(=O)[C@@H]1CCCN1C(=O)[C@H](CC(=O)O)NC(=O)[C@H](CCC(=O)O)NC(=O)[C@H](CO)NC(=O)[C@H](Cc1ccc(O)cc1)NC(=O)[C@H](CCCNC(=N)N)NC(=O)[C@H](CCC(N)=O)NC(=O)[C@@H](N)CC(C)C)[C@@H](C)O)C(C)C)C(=O)N1CCC[C@H]1C(=O)N[C@@H](CO)C(=O)N[C@@H](CCC(=O)O)C(=O)O	0.0270	–	DR3 binding data (DRB1*0301 (DR3); [2]): 0.0270
CSCC[C@H](NC(=O)[C@H](CC(=O)O)NC(=O)[C@H](CC(=O)O)NC(=O)[C@H](CC(=O)O)NC(=O)[C@H](CCC(=O)O)NC(=O)[C@H](CC(C)C)NC(=O)[C@H](CC(C)C)NC(=O)[C@H](CO)NC(=O)[C@H](CCCNC(=N)N)NC(=O)[C@@H](N)Cc1ccc(O)cc1)C(=O)NCC(=O)N[C@@H](CC(=O)O)C(=O)N[C@@H](CC(C)C)C(=O)N[C@H](C(=O)N[C@@H](CC(=O)O)C(=O)O)C(C)C	0.0630	–	–
CC[C@H](C)[C@H](NC(=O)[C@H](CO)NC(=O)[C@H](CC(C)C)NC(=O)[C@H](CO)NC(=O)[C@H](C)NC(=O)[C@H](CC(N)=O)NC(=O)[C@@H](NC(=O)[C@@H]1CCCN1C(=O)[C@@H](N)Cc1ccccc1)[C@@H](C)O)C(=O)O [Her2/neu.65.F1I9]	–	8.34	–
CC[C@H](C)[C@H](NC(=O)[C@H](Cc1ccccc1)NC(=O)[C@H](CO)NC(=O)[C@H](CC(C)C)NC(=O)[C@H](CO)NC(=O)[C@H](C)NC(=O)[C@H](CC(N)=O)NC(=O)[C@@H](NC(=O)[C@@H]1CCCN1C(=O)[C@@H](N)Cc1ccccc1)[C@@H](C)O)C(=O)O [Her2/neu.65.F1I10]	–	6.92	–
CC[C@H](C)[C@H](NC(=O)[C@@H]1CCCN1C(=O)[C@@H](NC(=O)[C@@H](NC(=O)[C@H](CC(N)=O)NC(=O)[C@H](CC(N)=O)NC(=O)[C@H](CC(C)C)NC(=O)[C@@H]1CCCN1C(=O)[C@@H](N)Cc1ccccc1)[C@@H](C)O)[C@@H](C)O)C(=O)O [Her2/neu.121.F1I9]	–	8.80	–
CC[C@H](C)[C@H](NC(=O)[C@H](CS)NC(=O)[C@H](CCCNC(=N)N)NC(=O)[C@H](CO)NC(=O)CNC(=O)[C@H](CCCCN)NC(=O)[C@H](CS)NC(=O)[C@H](CCSC)NC(=O)[C@@H]1CCCN1C(=O)[C@@H](N)Cc1ccccc1)C(=O)O [Her2/neu.196.F1] (H-FPMCKGSRCI-OH; N-terminus and C-terminus assumed)	–	–	No. of B7 Alleles Crossbound [1]: 3
CC[C@H](C)[C@H](NC(=O)[C@@H](NC(=O)[C@H](Cc1ccc(O)cc1)NC(=O)[C@H](CCCNC(=N)N)NC(=O)CNC(=O)[C@H](CCC(=O)O)NC(=O)[C@@H]1CCCN1C(=O)[C@H](CC(N)=O)NC(=O)[C@@H]1CCCN1C(=O)[C@@H](N)CCSC)[C@@H](C)O)C(=O)O [Her2/neu.282.I10]	–	7.47	No. of B7 Alleles Crossbound [1]: 5
CC[C@H](C)[C@H](NC(=O)[C@H](CC(=O)O)NC(=O)[C@@H]1CCCN1C(=O)[C@H](CC(C)C)NC(=O)[C@H](CO)NC(=O)[C@H](CC(=O)O)NC(=O)[C@@H]1CCCN1C(=O)[C@@H](N)Cc1c[nH]c2ccccc12)C(=O)O [Her2/neu.415.I8]	–	–	pIC50 (HLA-B*0702): 7.15; No. of B7 Alleles Crossbound [1]: 1
CC[C@H](C)[C@H](NC(=O)[C@@H](NC(=O)[C@H](Cc1c[nH]cn1)NC(=O)[C@H](CC(C)C)NC(=O)[C@H](CC(C)C)NC(=O)[C@H](C)NC(=O)[C@H](CCC(N)=O)NC(=O)[C@H](Cc1c[nH]cn1)NC(=O)[C@@H]1CCCN1C(=O)[C@@H](N)Cc1ccccc1)[C@@H](C)O)C(=O)O [Her2/neu.488.F1I10]	–	7.07	No. of B7 Alleles Crossbound [1]: 4
CC[C@H](C)[C@H](NC(=O)[C@H](CO)NC(=O)[C@@H](NC(=O)[C@@H](NC(=O)[C@H](CO)NC(=O)[C@@H](NC(=O)[C@H](CC(C)C)NC(=O)[C@@H]1CCCN1C(=O)[C@@H](N)Cc1ccccc1)[C@@H](C)O)[C@@H](C)CC)[C@@H](C)CC)C(=O)O [Her2/neu.649.F1I9]	–	–	No. of B7 Alleles Crossbound [1]: 5
DNLYYWDQDPPERGA	−0.0025	–	–
DTILWKDIFHKNNQL	−0.0027	–	–
FVVIQNEDLGPASPL	−0.0025	–	DR3 binding data (DRB1*0301 (DR3); [2]): −0.0025
GDLVDAEEYLVPQQG	0.0250	–	–
KNGVVKDVFAFGGAV	−0.0025	–	–
LVTYNTDTFESMPNP	−0.0027	–	–
NKEILDEAYVMAGVG	0.0047	–	–
SDVFDGDLGMGAAKG	−0.0025	–	–
TVPLPSETDGYVAPL	−0.0025	–	–

More lines, main results first:

DR3 binding data (DRB1*0301 (DR3); [3])	pIC50 (HLA-B*0702; [4])	Compound	also measured
0.0710	–	CSCC[C@H](NC(=O)[C@H](CCCNC(=N)N)NC(=O)[C@H](CO)NC(=O)[C@H](Cc1ccccc1)NC(=O)[C@H](CCC(=O)O)NC(=O)[C@H](CO)NC(=O)[C@@H](NC(=O)[C@H](CC(C)C)NC(=O)[C@H](CCC(=O)O)NC(=O)[C@H](CCCNC(=N)N)NC(=O)[C@@H](N)Cc1ccccc1)C(C)C)C(=O)N[C@@H](C)C(=O)N[C@@H](CCCNC(=N)N)C(=O)N[C@@H](CC(=O)O)C(=O)N1CCC[C@H]1C(=O)O	DR3 binding data (DRB1*0301 (DR3); [2]): 0.0710
−0.0027	–	CC(C)C[C@H](NC(=O)[C@H](CS)NC(=O)[C@H](Cc1c[nH]cn1)NC(=O)[C@H](CCCNC(=N)N)NC(=O)[C@H](C)NC(=O)[C@H](CC(N)=O)NC(=O)[C@@H](NC(=O)[C@H](Cc1ccc(O)cc1)NC(=O)[C@H](CCC(=O)O)NC(=O)[C@H](CCCNC(=N)N)NC(=O)[C@@H]1CCCN1C(=O)[C@H](CC(C)C)NC(=O)CNC(=O)[C@H](CCC(N)=O)NC(=O)[C@@H](N)CC(C)C)C(C)C)C(=O)O	DR3 binding data (DRB1*0301 (DR3); [2]): −0.0027
–	6.49	CC[C@H](C)[C@H](NC(=O)[C@@H](NC(=O)[C@H](Cc1ccc(O)cc1)NC(=O)[C@H](CCCNC(=N)N)NC(=O)CNC(=O)[C@H](CCC(=O)O)NC(=O)[C@@H]1CCCN1C(=O)[C@H](CC(N)=O)NC(=O)[C@@H]1CCCN1C(=O)[C@@H](N)Cc1ccccc1)[C@@H](C)O)C(=O)O [Her2/neu.282.F1]	No. of B7 Alleles Crossbound [1]: 5
–	6.34	CC[C@H](C)[C@H](NC(=O)[C@@H](NC(=O)[C@@H](NC(=O)[C@H](CCC(=O)O)NC(=O)[C@H](CCC(N)=O)NC(=O)[C@H](CC(N)=O)NC(=O)[C@H](Cc1c[nH]cn1)NC(=O)[C@H](CC(C)C)NC(=O)[C@@H]1CCCN1C(=O)[C@@H](N)CS)C(C)C)[C@@H](C)O)C(=O)O [Her2/neu.315.I10]	No. of B7 Alleles Crossbound [1]: 3
–	6.72	CC(C)C[C@H](NC(=O)CNC(=O)[C@H](Cc1ccc(O)cc1)NC(=O)[C@H](CS)NC(=O)[C@@H](NC(=O)[C@H](CCCNC(=N)N)NC(=O)[C@H](C)NC(=O)[C@H](CS)NC(=O)[C@@H]1CCCN1C(=O)[C@@H](N)Cc1ccccc1)C(C)C)C(=O)O [Her2/neu.336.F1]	No. of B7 Alleles Crossbound [1]: 3
–	6.83	CC(C)C[C@H](NC(=O)CNC(=O)[C@H](Cc1ccc(O)cc1)NC(=O)[C@H](CS)NC(=O)[C@@H](NC(=O)[C@H](CCCNC(=N)N)NC(=O)[C@H](C)NC(=O)[C@H](CS)NC(=O)[C@@H]1CCCN1C(=O)[C@@H](N)CCCCN)C(C)C)C(=O)O [Her2/neu.336] (H-KPCARVCYGL-OH)	No. of B7 Alleles Crossbound [1]: 1
–	6.41	CC(C)C[C@H](NC(=O)[C@H](C)NC(=O)[C@H](CCC(N)=O)NC(=O)[C@H](Cc1c[nH]cn1)NC(=O)[C@@H]1CCCN1C(=O)[C@@H](N)Cc1ccccc1)C(=O)N[C@@H](CC(C)C)C(=O)N[C@@H](Cc1c[nH]cn1)C(=O)N[C@H](C(=O)N[C@@H](C)C(=O)O)[C@@H](C)O [Her2/neu.488.F1]	No. of B7 Alleles Crossbound [1]: 3
0.0075	–	AIKVLRENTSPKANK	DR3 binding data (DRB1*0301 (DR3); [2]): 0.0075
−0.0025	–	DLTLGLEPSEEEAPR	DR3 binding data (DRB1*0301 (DR3); [2]): −0.0025
−0.0027	–	ETEYHADGGKVPIKW	–
–	6.51	FPGGLRELQI [Her2/neu.133.F1I10]	–
–	9.70	FPLNNTTPV [Her2/neu.121.F1]	–
−0.0027	–	MRRLLQETELVEPLT	–
−0.0027	–	NQEVTAEDGTQRCEK	–
−0.0027	–	SLAFLPESFDGDPAS	–
0.0520	–	SLSFLQDIQEVQGYV	–
0.0023	–	TAPLQPEQLQVEETL	–
